Data as given in PubChem BioAssay (NCI).
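These data come from cells grown in 96-well plates and exposed to compound for 48 hours at five concentrations. GI50 is the concentration that inhibits growth by half. TGI: total growth inhibition.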

How the values were obtained:
Assay in all cases: NCI-60 cell line screen, 48 h
HL-60(TB) leukemia = test system: HL-60(TB) leukemia
SW-620 colon = test system: SW-620 colon
OVCAR-4 ovarian = test system: OVCAR-4 ovarian
KM12 colon = test system: KM12 colon
MDA-MB-231 breast = test system: MDA-MB-231 breast
MCF7 breast = test system: MCF7 breast
RPMI-8226 leukemia = test system: RPMI-8226 leukemia
LOX IMVI melanoma = test system: LOX IMVI melanoma
NCI-H23 lung = test system: NCI-H23 lung
NCI-H226 lung = test system: NCI-H226 lung
SK-OV-3 ovarian = test system: SK-OV-3 ovarian
OVCAR-3 ovarian = test system: OVCAR-3 ovarian
SNB-19 CNS = test system: SNB-19 CNS
SF-268 CNS = test system: SF-268 CNS
HCT-116 colon = test system: HCT-116 colon
BT-549 breast = test system: BT-549 breast
COLO 205 colon = test system: COLO 205 colon
TK-10 renal = test system: TK-10 renal
UO-31 renal = test system: UO-31 renal
HCC-2998 colon = test system: HCC-2998 colon
MDA-MB-435 = test system: MDA-MB-435
A498 renal = test system: A498 renal
HCT-15 colon = test system: HCT-15 colon
HOP-62 NSCLC = test system: HOP-62 NSCLC
UACC-257 melanoma = test system: UACC-257 melanoma
SK-MEL-2 melanoma = test system: SK-MEL-2 melanoma
T-47D breast = test system: T-47D breast
MALME-3M melanoma = test system: MALME-3M melanoma
MOLT-4 leukemia = test system: MOLT-4 leukemia
SF-539 CNS = test system: SF-539 CNS
K-562 leukemia = test system: K-562 leukemia
NCI-H522 lung = test system: NCI-H522 lung
SN12C renal = test system: SN12C renal
PC-3 prostate = test system: PC-3 prostate
A549 NSCLC = test system: A549 NSCLC
HS 578T breast = test system: HS 578T breast
SK-MEL-5 melanoma = test system: SK-MEL-5 melanoma
CAKI-1 renal = test system: CAKI-1 renal
OVCAR-8 ovarian = test system: OVCAR-8 ovarian
DU-145 prostate = test system: DU-145 prostate
OVCAR-5 ovarian = test system: OVCAR-5 ovarian
CCRF-CEM leukemia = test system: CCRF-CEM leukemia
HOP-92 NSCLC = test system: HOP-92 NSCLC
NCI/ADR-RES ovarian = test system: NCI/ADR-RES ovarian
U251 CNS = test system: U251 CNS
SNB-75 CNS = test system: SNB-75 CNS
NCI-H460 lung = test system: NCI-H460 lung
SF-295 CNS = test system: SF-295 CNS
SK-MEL-28 melanoma = test system: SK-MEL-28 melanoma
HT29 colon = test system: HT29 colon
786-0 renal = test system: 786-0 renal
IGROV1 ovarian = test system: IGROV1 ovarian
ACHN renal = test system: ACHN renal
UACC-62 melanoma = test system: UACC-62 melanoma
RXF 393 renal = test system: RXF 393 renal
SR leukemia = test system: SR leukemia

Compound `CCc1ccc(CNCC(O)c2ccccc2)cc1` (configuration not stated) has a GI50 (HL-60(TB) leukemia) of 23.4 µM, a TGI (HL-60(TB) leukemia) of 68.6 µM and a GI50 (SW-620 colon) of 18.5 µM. The TGI (SW-620 colon) was 42.9 µM, the GI50 (OVCAR-4 ovarian) was 29.6 µM and the TGI (OVCAR-4 ovarian) was greater than 100 µM. For the same compound, the GI50 (KM12 colon) was 15 µM, the TGI (KM12 colon) was 32.1 µM and the GI50 (MDA-MB-231 breast) was 13.2 µM. It also gave a TGI (MDA-MB-231 breast) of 35.7 µM, a GI50 (MCF7 breast) of 15.5 µM and a TGI (MCF7 breast) of 34.2 µM. For the same compound, the GI50 (RPMI-8226 leukemia) was 22.7 µM, the TGI (RPMI-8226 leukemia) was 53.3 µM and the GI50 (LOX IMVI melanoma) was 16.4 µM. For the same compound, the TGI (LOX IMVI melanoma) was 34 µM, the GI50 (NCI-H23 lung) was 49.2 µM and the TGI (NCI-H23 lung) was greater than 100 µM. The GI50 (NCI-H226 lung) was greater than 100 µM, the TGI (NCI-H226 lung) was greater than 100 µM and the GI50 (SK-OV-3 ovarian) was 63 µM. It also gave a TGI (SK-OV-3 ovarian) greater than 100 µM, a GI50 (OVCAR-3 ovarian) of 25.2 µM and a TGI (OVCAR-3 ovarian) of 79.2 µM. For the same compound, the GI50 (SNB-19 CNS) was 46.9 µM, the TGI (SNB-19 CNS) was greater than 100 µM and the GI50 (SF-268 CNS) was 33.6 µM. It also gave a TGI (SF-268 CNS) greater than 100 µM, a GI50 (HCT-116 colon) of 28.4 µM and a TGI (HCT-116 colon) greater than 100 µM. For the same compound, the GI50 (BT-549 breast) was 8.3 µM, the TGI (BT-549 breast) was greater than 100 µM and the GI50 (COLO 205 colon) was 16.6 µM. The TGI (COLO 205 colon) was 33 µM, the GI50 (TK-10 renal) was 34.2 µM and the TGI (TK-10 renal) was greater than 100 µM. For the same compound, the GI50 (UO-31 renal) was 18.9 µM, the TGI (UO-31 renal) was greater than 100 µM and the GI50 (HCC-2998 colon) was 17.9 µM. The TGI (HCC-2998 colon) was 36.8 µM, the GI50 (MDA-MB-435) was 6.93 µM and the TGI (MDA-MB-435) was 20.1 µM. The GI50 (A498 renal) was 5.14 µM, the TGI (A498 renal) was 47.2 µM and the GI50 (HCT-15 colon) was 17.3 µM. It also gave a TGI (HCT-15 colon) of 53 µM, a GI50 (HOP-62 NSCLC) of 37.1 µM and a TGI (HOP-62 NSCLC) greater than 100 µM. It also gave a GI50 (UACC-257 melanoma) of 16.2 µM, a TGI (UACC-257 melanoma) of 35.7 µM and a GI50 (SK-MEL-2 melanoma) of 17.2 µM. For the same compound, the TGI (SK-MEL-2 melanoma) was 33.7 µM, the GI50 (T-47D breast) was 20.2 µM and the TGI (T-47D breast) was 51.9 µM. It also gave a GI50 (MALME-3M melanoma) of 14.8 µM, a TGI (MALME-3M melanoma) of 31.2 µM and a GI50 (MOLT-4 leukemia) of 21.8 µM. The TGI (MOLT-4 leukemia) was 54.5 µM, the GI50 (SF-539 CNS) was 16.5 µM and the TGI (SF-539 CNS) was 39.5 µM. The GI50 (K-562 leukemia) was 7.85 µM, the TGI (K-562 leukemia) was 62.6 µM and the GI50 (NCI-H522 lung) was 24.7 µM. The TGI (NCI-H522 lung) was 70.5 µM, the GI50 (SN12C renal) was 33.5 µM and the TGI (SN12C renal) was greater than 100 µM. For the same compound, the GI50 (PC-3 prostate) was 34.8 µM, the TGI (PC-3 prostate) was greater than 100 µM and the GI50 (A549 NSCLC) was 39.2 µM. It also gave a TGI (A549 NSCLC) greater than 100 µM, a GI50 (HS 578T breast) of 28.1 µM and a TGI (HS 578T breast) greater than 100 µM. The GI50 (SK-MEL-5 melanoma) was 15.7 µM, the TGI (SK-MEL-5 melanoma) was 29.2 µM and the GI50 (CAKI-1 renal) was 25.4 µM. It also gave a TGI (CAKI-1 renal) greater than 100 µM, a GI50 (OVCAR-8 ovarian) of 26.5 µM and a TGI (OVCAR-8 ovarian) greater than 100 µM. It also gave a GI50 (DU-145 prostate) of 35.5 µM, a TGI (DU-145 prostate) greater than 100 µM and a GI50 (OVCAR-5 ovarian) of 18.1 µM. For the same compound, the TGI (OVCAR-5 ovarian) was 44.2 µM, the GI50 (CCRF-CEM leukemia) was 34.5 µM and the TGI (CCRF-CEM leukemia) was greater than 100 µM. The GI50 (HOP-92 NSCLC) was 6.14 µM, the TGI (HOP-92 NSCLC) was 38.1 µM and the GI50 (NCI/ADR-RES ovarian) was 20.8 µM. The TGI (NCI/ADR-RES ovarian) was 71.2 µM, the GI50 (U251 CNS) was 17.7 µM and the TGI (U251 CNS) was 43.1 µM. It also gave a GI50 (SNB-75 CNS) of 5.39 µM, a TGI (SNB-75 CNS) of 42.2 µM and a GI50 (NCI-H460 lung) of 19.1 µM. For the same compound, the TGI (NCI-H460 lung) was 42.8 µM, the GI50 (SF-295 CNS) was 16.5 µM and the TGI (SF-295 CNS) was 35.5 µM. For the same compound, the GI50 (SK-MEL-28 melanoma) was 14.5 µM, the TGI (SK-MEL-28 melanoma) was 28.7 µM and the GI50 (HT29 colon) was 21.5 µM. The TGI (HT29 colon) was 68.4 µM, the GI50 (786-0 renal) was 20.1 µM and the TGI (786-0 renal) was 53.8 µM. It also gave a GI50 (IGROV1 ovarian) of 47.8 µM, a TGI (IGROV1 ovarian) greater than 100 µM and a GI50 (ACHN renal) of 31.4 µM. The TGI (ACHN renal) was greater than 100 µM, the GI50 (UACC-62 melanoma) was 16.5 µM and the TGI (UACC-62 melanoma) was 32.4 µM. For the same compound, the GI50 (RXF 393 renal) was 14.3 µM, the TGI (RXF 393 renal) was 45.5 µM and the GI50 (SR leukemia) was 13.5 µM. It also gave a TGI (SR leukemia) of 49.2 µM.
